Source: publication PMC7139504, “New Arylethanolimidazole Derivatives as HO-1 Inhibitors with Cytotoxicity against MCF-7 Breast Cancer Cells” (International Journal of Molecular Sciences, 2020)
Where “and” joins values, the source holds several entries; their conditions need not be identical. Identical values can stand only once. Like-named read-outs stand apart in the source and are kept apart here.

Columns and labels:
HO-2 [1] = molecular target: T1, HO-2 (Rattus norvegicus, UniProt P23711); conditions: reference compounds; data taken from ref 32; read-out: IC50 (μM) ± SD HO-2; cited from earlier work
T1 construct: selected in order to use the most native (i.e., closest to in vivo) forms of HO-1 and HO-2; from tissue; host or cells: brain microsomal fraction of male Sprague-Dawley rats
T1 sequence (P23711 1-315): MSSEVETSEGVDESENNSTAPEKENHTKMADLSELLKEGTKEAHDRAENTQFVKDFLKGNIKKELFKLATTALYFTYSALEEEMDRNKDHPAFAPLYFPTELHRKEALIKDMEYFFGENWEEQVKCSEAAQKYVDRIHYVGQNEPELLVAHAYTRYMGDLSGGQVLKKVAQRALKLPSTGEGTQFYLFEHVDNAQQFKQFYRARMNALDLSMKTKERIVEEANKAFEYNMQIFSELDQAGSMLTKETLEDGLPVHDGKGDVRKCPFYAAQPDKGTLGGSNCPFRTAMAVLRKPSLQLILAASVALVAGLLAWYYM

HO-1 [2] = molecular target: T2, HO-1 (Rattus norvegicus, UniProt P06762); conditions: reference compounds; data taken from ref 32; read-out: IC50 (μM) ± SD HO-1; cited from earlier work
T2 construct: selected in order to use the most native (i.e., closest to in vivo) forms of HO-1 and HO-2; from tissue; host or cells: spleen microsomal fraction of male Sprague-Dawley rats
T2 sequence (P06762 1-289): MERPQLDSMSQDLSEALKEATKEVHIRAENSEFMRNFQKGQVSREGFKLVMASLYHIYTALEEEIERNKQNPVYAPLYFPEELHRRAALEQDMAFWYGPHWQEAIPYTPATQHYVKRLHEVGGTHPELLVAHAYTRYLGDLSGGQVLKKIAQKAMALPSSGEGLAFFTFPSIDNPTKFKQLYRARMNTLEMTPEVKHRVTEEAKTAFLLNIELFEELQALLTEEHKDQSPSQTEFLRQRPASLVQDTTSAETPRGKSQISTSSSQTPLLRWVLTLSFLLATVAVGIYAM

HO-1 [3] = molecular target: T2, HO-1; assay: HO-1 inhibition, bilirubin formation in rat spleen microsomal fraction; assay type: biochemical
Procedure: (§1) HO-1 and HO-2 were obtained from the microsomal fractions of rat spleen and rat brain, respectively. Enzymatic activity of both isoforms was determined by measuring the bilirubin formation using the difference in absorbance at 464–530 nm, as described in the experimental section. Compounds A–C, and tin protoporphyrin (SnPP) were used as reference substances. Inhibition of enzymes activity is expressed as IC50 (μM), and results are resumed in Table 1.
The dominance of HO-1 protein in the rat spleen and of HO-2 in the rat brain has been well documented; thus, the microsomal fraction, prepared by differential centrifugation, from rat spleen and brain have been used to obtain HO-1 and HO-2. These particular microsomal preparations were selected in order to use the most native (i.e., closest to in vivo) forms of HO-1 and HO-2. Spleen and brain microsomal fractions, from Sprague–Dawley rats, were prepared following a published procedure. All experiments complied with current Italian law and met the guidelines of the Institutional Animal Care and Use Committee of MINISTRY OF HEALTH (Directorate General for Animal Health and Veterinary Medicines, Italy). Male Sprague–Dawley albino rats (150 g body weight and age 45 d) were used. Rats had free access to water, and they were maintained at room temperature with a natural photoperiod (12 h:12 h light–dark cycle). For measuring HO-1 and HO-2 activities, each rat was sacrificed and their spleen and brain were excised and weighed. A homogenate (15%, w/v) of spleens and brains pooled from four rats was prepared in ice-cold HO-homogenizing buffer (50 mM Tris buffer, pH 7.4, containing 0.25 M sucrose) using a Potter–Elvehjem homogenizing system with a Teflon pestle. The microsomal fraction of rat spleen and brain homogenate was obtained by centrifugation at 10,000× g for 20 min at 4 °C, followed by centrifugation of the supernatant at 100,000× g for 60 min at 4 °C. The 100,000× g pellet (microsomes) was resuspended in 100 mM potassium phosphate buffer, pH 7.8, containing 2 mM MgCl2 with a Potter–Elvehjem homogenizing system. Equal aliquots of the rat spleen and brain microsomal fractions were prepared, placed into microcentrifuge tubes, and stored at −80 °C for up to 2 months. Finally, the Lowry method was used to determine the protein concentration of the microsomal fraction.
Liver cytosol has been used as a source of biliverdin reductase. Rat liver was perfused through the hepatic portal vein with cold 0.9% NaCl, then it was cut and flushed with 2 × 20 mL of ice-cold PBS to remove all of the blood. Liver tissue was homogenized in three volumes of a solution containing 1.15% KCl w/v and Tris buffer 20 mM, pH 7.8 on ice. Homogenates were centrifuged at 10,000× g for 20 min at 4 °C. The supernatant was decanted and centrifuged at 100,000× g for 1 h at 4 °C to sediment the microsomes. The 100,000× g supernatant was saved and then stored in small amounts at −80 °C after its protein concentration was measured.
The measurement of bilirubin formation, using the difference in absorbance at 464–530 nm, was used to determine the HO-1 and HO-2 activities, as previously described by Ryter et al.. Reaction mixtures (500 μL) consisted of 20 mM Tris–HCl, pH 7.4, (1 mg/mL) microsomal extract, 0.5–2 mg/mL biliverdin reductase, 1 mM NADPH, 2 mM glucose 6-phosphate (G6P), 1 U G6P dehydrogenase, 25 μM hemin, and 10 μL of DMSO (or the same volume of DMSO solution of test or reference compounds to a final concentration of 100, 10, and 1 μM). Incubations were carried out for 60 min at 37 °C in a circulating water bath in the dark. One volume of chloroform was added to stop the reactions. Then, the chloroform phase was recovered, and the amount of bilirubin, which was formed has been measured with a double-beam spectrophotometer as OD464–530 nm (extinction coefficient, 40 mM/cm^−1 for bilirubin). […]

MDA-MB-231 cells = assay: Sulforhodamine B (SRB) cytotoxicity assay, MDA-MB-231; assay type: cell-based; conditions: hormone-resistant breast cancer cells, 10–100 μM, 48 h
Procedure: (§2) Both cell lines were treated with 10–100 μM of compound 5a for 48 h. Cell survival at different concentrations was calculated compared to untreated controls. At the end of treatment, cell number was determined using the sulforhodamine B (SRB) colorimetric assay based on the measurement of cellular protein content.
(§3) MCF-7 and MDA-MB-231 cells were maintained in complete growth media (DMEM/Ham’s F12 supplemented with 10% fetal bovine serum, 2 mM L-glutamine, 100 units/mL penicillin, 100 units/mL of streptomycin, and 2.2 g/L of NaHCO3) at 37 °C in a humidified atmosphere of 5% CO2. For all procedures, cells were harvested using TrypLE Express (Life Technologies, Auckland, New Zealand).
(§4) Cells were seeded into 96-well plates and incubated for 24 h to test the cytotoxic effect of the HO inhibitor. After 24 h incubation, different concentrations of the HO inhibitor were administered for 48 h. Following the incubation, cells were fixed using 10% trichloro-acetic acid (TCA). The cytotoxicity was determined using the sulforhodamine B assay was used, as previously described, to determine the cytotoxicity of the HO-1 inhibitor. IC50 (the concentration required to decrease the cell number by 50%) was determined by non-linear regression using Graphpad prism 6 software. Treatments were performed in triplicate, and data represent the mean of three independent experiments.

HO-2 [4] = molecular target: T1, HO-2; assay: HO-2 inhibition, bilirubin formation in rat brain microsomal fraction; assay type: biochemical; conditions: mean ± SD of three determinations
Procedure: as §1
The dominance of HO-1 protein in the rat spleen and of HO-2 in the rat brain has been well documented; thus, the microsomal fraction, prepared by differential centrifugation, from rat spleen and brain have been used to obtain HO-1 and HO-2. These particular microsomal preparations were selected in order to use the most native (i.e., closest to in vivo) forms of HO-1 and HO-2. Spleen and brain microsomal fractions, from Sprague–Dawley rats, were prepared following a published procedure. All experiments complied with current Italian law and met the guidelines of the Institutional Animal Care and Use Committee of MINISTRY OF HEALTH (Directorate General for Animal Health and Veterinary Medicines, Italy). Male Sprague–Dawley albino rats (150 g body weight and age 45 d) were used. Rats had free access to water, and they were maintained at room temperature with a natural photoperiod (12 h:12 h light–dark cycle). For measuring HO-1 and HO-2 activities, each rat was sacrificed and their spleen and brain were excised and weighed. […]
Liver cytosol has been used as a source of biliverdin reductase. […] The 100,000× g supernatant was saved and then stored in small amounts at −80 °C after its protein concentration was measured.
The measurement of bilirubin formation, using the difference in absorbance at 464–530 nm, was used to determine the HO-1 and HO-2 activities, as previously described by Ryter et al.. […] Then, the chloroform phase was recovered, and the amount of bilirubin, which was formed has been measured with a double-beam spectrophotometer as OD464–530 nm (extinction coefficient, 40 mM/cm^−1 for bilirubin). […]

MCF-7 cells = assay: Sulforhodamine B (SRB) cytotoxicity assay, MCF-7; assay type: cell-based; conditions: Homo sapiens, MCF7, hormone-sensitive breast cancer cells, 10–100 μM, 48 h, mean ± SEM (n = 3), read-out: IC50 cytotoxicity against MCF-7
Procedure: as §2, §3, §4

[5] = experimental values repeated in the docking table, read-out: IC50 exp. (μM) HO-1
[6] = rat spleen microsomal fraction, mean ± SD of three determinations, read-out: IC50 (μM) ± SD HO-1

SMILES	IC50 (HO-1 [3]; [5]) [µM]	IC50 (HO-1 [3]; [6]) [µM]	melting point [°C]	further results
OC(Cn1ccnc1)c1cccc(-c2ccccc2)c1 (centres unmarked) [B]				IC50 (HO-2 [1]): > 100 µM; IC50 (HO-1 [2]): 0.95 µM
OC(Cn1ccnc1)c1ccc(OCc2ccc(Br)cc2)cc1 (centres unmarked) [C]				IC50 (HO-2 [1]): > 100 µM
Brc1cccc(CCn2ccnc2)c1 [Compound 2a, 1-(3-bromophenethyl)-1H-imidazole]	100	100 ± 5.6		
Brc1ccc(COc2ccc(CCn3ccnc3)cc2)cc1 [Compound 2b, 1-(4-((4-bromobenzyl)oxy)phenethyl)-1H-imidazole]	62.9 ± 3.2	62.9 ± 3.2	147.5 to 149.7	
c1ccc(-c2cccc(CCn3ccnc3)c2)cc1 [Compound 2c, 1-(2-((1,1’-biphenyl)-3-yl)ethyl)-1H-imidazole]	46.8 ± 1.8	46.8 ± 1.8		
C=Cc1c2[n-]c(c1C)/C=c1\[n-]/c(c(C)c1C=C)=C\c1[n-]c(c(CCC(=O)O)c1C)/C=c1\[n-]c(c(C)c1CCC(=O)O)=C2.[Sn+4] [SnPP, tin protoporphyrin, reference compound]		0.58 ± 0.03		IC50 (HO-2 [4]): 0.36 ± 0.01 µM

Now from value to compound, other results behind:

IC50 (HO-1 [3]; [5]) [µM]	IC50 (HO-1 [3]; [6]) [µM]	melting point [°C]	SMILES	further results
	38.2 ± 1.8		O=C(Cn1ccnc1)c1cccc(Br)c1 [Compound 4g]	
	19.9 ± 2.5		O=C(Cn1ccnc1)c1cccc(-c2ccccc2)c1 [Compound 4h]	
	55.46 ± 0.05		O=C(Cn1ccnc1)c1ccc(OCc2ccc(Br)cc2)cc1 [Compound 4i]	
0.9 ± 0.02	0.9 ± 0.02	123 to 126	OC(Cn1ccnc1)c1cccc(OCc2ccc(Br)cc2)c1 (centres unmarked) [Compound 5a, 1-[3-[(4-bromobenzyl)oxy]phenyl]-2-(1H-imidazol-1-yl)ethanol]	cytotoxicity against MDA-MB-231 (MDA-MB-231 cells): no cytotoxicity; IC50 (HO-2 [4]): 54 µM and 53.6 µM; IC50 (MCF-7 cells): 47.4 ± 6.8 µM
> 100	≥ 100	121.5 to 130	OC(Cn1ccnc1)c1ccccc1OCc1ccc(Br)cc1 (centres unmarked) [Compound 5b, 1-[2-[(4-bromobenzyl)oxy]phenyl]-2-(1H-imidazol-1-yl)ethanol]	
41 ± 1.5	41 ± 1.5	120.1 to 123	OC(Cn1ccnc1)c1ccc(OCc2cccc(Br)c2)cc1 (centres unmarked) [Compound 5c, 1-[4-[(3-bromobenzyl)oxy]phenyl]-2-(1H-imidazol-1-yl)ethanol]	
9 ± 2.2	9 ± 2.2	120 to 126	OC(Cn1ccnc1)c1ccc(OCc2ccccc2Br)cc1 (centres unmarked) [Compound 5d, 1-[4-[(2-bromobenzyl)oxy]phenyl]-2-(1H-imidazol-1-yl)ethanol]	IC50 (HO-2 [4]): 15.8 ± 1.6 µM
46 ± 1.9	46 ± 1.9	93.5 to 99.4	OC(Cn1ccnc1)c1cccc(OCc2cccc(Br)c2)c1 (centres unmarked) [Compound 5e, 1-[3-[(3-bromobenzyl)oxy]phenyl]-2-(1H-imidazol-1-yl)ethanol]	
44 ± 1.8	44 ± 1.8	132 to 140	OC(Cn1ccnc1)c1cccc(OCc2ccccc2Br)c1 (centres unmarked) [Compound 5f, 1-[3-[(2-bromobenzyl)oxy]phenyl]-2-(1H-imidazol-1-yl)ethanol]	
> 100	> 100		Clc1ccc(COC(Cn2ccnc2)c2cccc(Br)c2)cc1 (centres unmarked) [Compound 6a, 1-(2-(3-bromophenyl)-2-((4-chlorobenzyl)oxy)ethyl)-1H-imidazole]	
66 ± 3.2	66 ± 3.2		Clc1ccc(Cl)c(COC(Cn2ccnc2)c2cccc(Br)c2)c1 (centres unmarked) [Compound 6b, 1-(2-(3-bromophenyl)-2-((2,5-dichlorobenzyl)oxy)ethyl)-1H-imidazole]	
